Values quoted from earlier work, collected in patent US9827328B2, “Combination therapy for treatment of cancer” (UNIVERSITY OF SOUTH ALABAMA, priority 2011, dated 2017).
Where two headings read alike, the source gives them in different places.

Tests used:
[1] = test system: patients with metastatic breast cancer
[2] = test system: patients with advanced or metastatic breast cancer; conditions: weekly nab-paclitaxel v every-three week Taxotere

SMILES	incidence of hyperglycemia reported as adverse effect ([1]; all patients) [%]	median survival ([1]; all patients) [weeks]	median time to tumor progression (TTP) ([1]; all patients) [weeks]	overall response rate (ORR) ([1]; all patients, ITT) [%]	number of patients with persistent grade 3 sensory neuropathy ([1]; by day 28 after first occurrence)	episodes of motor neuropathy or grade 4 sensory neuropathy ([1]; in vivo)	incidence of treatment-related grade 4 neutropenia ([1]; in vivo) [%]	mean neutrophil nadir ([1]; in vivo) [L⁻¹]	treatment-related grade 3 sensory neuropathy ([1]; in vivo) [%]	severe (grade 3 or 4) treatment-related hypersensitivity reactions ([1]; nab-paclitaxel without premedication, Taxol with standard premedication)	tumor response rate ([1]; patients aged younger than 65 years) [%]	ORR ([1]; patients who received first-line therapy) [%]	ORR ([1]; patients with nonvisceral dominant lesions) [%]	tumor response rate ([1]; patients with visceral dominant lesions) [%]	ORR ([1]; patients ≧65 years old) [%]	ORR ([1]; prior anthracycline therapy, adjuvant/metastatic setting) [%]	ORR ([1]; prior anthracycline therapy, metastatic setting only) [%]	ORR ([1]; second-line or greater therapy) [%]	median survival ([1]; second-line or greater therapy) [weeks]	rate of grade 4 neutropenia [2] [%]
CC(=O)O[C@H]1C(=O)[C@@]2(C)[C@H]([C@H](OC(=O)c3ccccc3)[C@]3(O)C[C@H](OC(=O)[C@H](O)[C@@H](NC(=O)c4ccccc4)c4ccccc4)C(C)=C1C3(C)C)[C@]1(OC(C)=O)CO[C@@H]1C[C@@H]2O [Taxol, paclitaxel]	7	55.7	16.9	19	4	No episodes	22	1.31e+09	2	grade 3 hypersensitivity reactions occurred	19	27	19	19	19	18	14	13	46.7	
CC(=O)O[C@@]12CO[C@@H]1C[C@H](O)[C@@]1(C)C(=O)[C@H](O)C3=C(C)[C@@H](OC(=O)[C@H](O)[C@@H](NC(=O)OC(C)(C)C)c4ccccc4)C[C@@](O)([C@@H](OC(=O)c4ccccc4)[C@H]21)C3(C)C [Taxotere, docetaxel]																				75
